Tested on: K562 human chronic myeloid leukaemia cells
Test: In vitro cytotoxicity, MTT assay in K562 cells
Format: cell-based
Experimental: K562 human chronic myeloid leukaemia cells were maintained in RPM1 1640 medium supplemented with 10% fetal calf serum and 2 mM glutamine at 37° C. in a humidified atmosphere containing 5% CO2 and were incubated with a specified dose of drug for 1 hour or 96 hours at 37° C. in the dark. The incubation was terminated by centrifugation (5 min, 300 g) and the cells were washed once with drug-free medium. Following the appropriate drug treatment, the cells were transferred to 96-well microtiter plates (10^4 cells per well, 8 wells per sample). Plates were then kept in the dark at 37° C. in a humidified atmosphere containing 5% CO2. The assay is based on the ability of viable cells to reduce a yellow soluble tetrazolium salt, 3-(4,5-dimethylthiazol-2-yl)-2,5-diphenyl-2H-tetrazolium bromide (MTT, Aldrich-Sigma), to an insoluble purple formazan precipitate. Following incubation of the plates for 4 days (to allow control cells to increase in number by approximately 10 fold), 20 μL of MTT solution (5 mg/mL in phosphate-buffered saline) was added to each well and the plates further incubated for 5 h. The plates were then centrifuged for 5 min at 300 g and the bulk of the medium pipetted from the cell pellet leaving 10-20 μL per well. DMSO (200 μL) was added to each well and the samples agitated to ensure complete mixing. The optical density was then read at a wavelength of 550 nm on a Titertek Multiscan ELISA plate reader, and a dose-response curve was constructed. For each curve, an IC50 value was read as the dose required to reduce the final optical density to 50% of the control value.

Compound | IC50 (K562, 1 h, 1 hour incubation) | also measured
COc1cc2c(cc1OCCCOc1cc3c(cc1OC)C(=O)N1C=C(/C=C/C(=O)N(C)C)C[C@H]1C=N3)N=C[C@@H]1CC(/C=C/C(=O)N(C)C)=CN1C2=O | 3.8 ± 0.44 µM | –
C/C=C/C1=CN2C(=O)c3cc(OC)c(OC)cc3N=C[C@@H]2C1 [Compound 30q, (11aS)-7,8-Dimethoxy-2-(1-propenyl)-1,11a-dihydro-5H-pyrrolo[2,1-c][1,4]benzodiazepin-5-one] | – | IC50 (K562, 96 h, 96 hour incubation period, threshold less than 10 nM): < 0.01 µM; IC50 (K562, 96 h, 96 hour incubation period, threshold less than 1 μM): < 1 µM
COc1ccc(C2=CN3C(=O)c4cc(OC)c(OCCCOc5cc6c(cc5OC)C(=O)N5C=C(c7ccc(OC)cc7)C[C@H]5C=N6)cc4N=C[C@@H]3C2)cc1 [ZC-207, 1,1′-[[(Propane-1,3-diyl)dioxy]bis[(11aS)-7-methoxy-2-(p-methoxybenzene)-1,11a-dihydro-5H-pyrrolo[2,1-c][1,4]benzodiazepine-5-one]]] | 0.0053 ± 0.0049 µM | –
COc1cc2c(cc1OCCCOc1cc3c(cc1OC)C(=O)N1C=C(C#Cc4ccccc4)C[C@H]1C=N3)N=C[C@@H]1CC(C#Cc3ccccc3)=CN1C2=O [ZC-209] | < 0.01 µM | –
C/C=C/C1=CN2C(=O)c3cc(OC)c(OCCCOc4cc5c(cc4OC)C(=O)N4C=C(/C=C/C)C[C@H]4C=N5)cc3N=C[C@@H]2C1 [ZC-211] | – | IC50 (1 hour incubation): < 0.01 µM

Source: patent US7741319B2 (Spirogen Limited, priority 2004, dated 2010)
